{"source": "patent US20080255082A1", "about": "“Hair and/or Scalp Care Compositions Incorporating Terpenoid Compounds” (priority 2005, published 2008)", "key": {"[1]": {"molecular_target": "T1, human recombinant CB1 (Homo sapiens, UniProt P21554)", "T1 construct": "purchased Perkin-Elmer; host or cells: HEK293", "T1 sequence (P21554 whole entry)": "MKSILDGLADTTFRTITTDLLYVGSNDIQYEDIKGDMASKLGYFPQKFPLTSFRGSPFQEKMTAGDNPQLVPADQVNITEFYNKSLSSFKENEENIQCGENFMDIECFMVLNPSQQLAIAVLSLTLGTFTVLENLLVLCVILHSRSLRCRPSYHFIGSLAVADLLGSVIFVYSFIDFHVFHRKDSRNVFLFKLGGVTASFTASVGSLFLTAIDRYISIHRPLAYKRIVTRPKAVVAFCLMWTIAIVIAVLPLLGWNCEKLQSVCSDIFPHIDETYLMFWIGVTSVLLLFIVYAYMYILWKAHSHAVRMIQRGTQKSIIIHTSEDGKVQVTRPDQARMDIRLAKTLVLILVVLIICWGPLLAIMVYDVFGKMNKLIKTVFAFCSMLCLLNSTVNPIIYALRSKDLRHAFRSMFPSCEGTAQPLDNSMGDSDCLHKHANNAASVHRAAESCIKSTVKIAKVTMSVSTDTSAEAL", "test": "CB1R radioligand binding on membranes from HEK293 cells over-expressing CB1", "description": "(§1) Terpenoid compounds of formula (I), (II) or (III) above were evaluated for their ability to activate Cannabinoid Receptor 1 (CB1R) and Cannabinoid Receptor 2 (CB2R). Their ClogP values were also measured.\nCB1R experiments were performed using membranes from HEK293 cells over-expressing human recombinant CB1, as described by the manufacturer (Perkin-Elmer) and using [3H]CP-55,490 as the radioligand.\n(§2) Data of active compounds are expressed in Ki (mM) and are means ±SEM of n=3 determinations.\n(§3) The values that are stated for each of the compounds is an EC50 value. This is defined as the molar concentration of an agonist, which produces 50% of the maximum possible response for that agonist. The values documented are in micromolar units."}, "[2]": {"molecular_target": "T2, human recombinant CB2 (Homo sapiens, UniProt P34972)", "T2 construct": "purchased Perkin-Elmer; host or cells: HEK293", "T2 sequence (P34972 whole entry)": "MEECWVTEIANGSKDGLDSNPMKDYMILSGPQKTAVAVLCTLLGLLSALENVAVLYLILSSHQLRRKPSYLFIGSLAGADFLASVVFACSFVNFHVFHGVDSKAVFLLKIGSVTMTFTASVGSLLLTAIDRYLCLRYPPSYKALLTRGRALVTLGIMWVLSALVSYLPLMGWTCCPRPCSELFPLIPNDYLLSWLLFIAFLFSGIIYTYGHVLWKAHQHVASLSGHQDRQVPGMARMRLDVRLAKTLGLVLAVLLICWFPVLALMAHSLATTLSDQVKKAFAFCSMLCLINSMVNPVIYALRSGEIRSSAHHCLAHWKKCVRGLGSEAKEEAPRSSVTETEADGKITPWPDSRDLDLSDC", "test": "CB2R radioligand binding on membranes from HEK293 cells over-expressing CB2", "description": "as §1\nCB2R experiments were performed using membranes from HEK293 cells over-expressing human recombinant CB2, as described by the manufacturer (Perkin-Elmer), and using [3H]CP-55,495 as the radioligand.\nas §2, §3"}, "[3]": {"conditions": "HEK293 membranes, [3H]CP-55,490 radioligand, means of n=3, read-out: CB1R Activity"}, "[4]": {"conditions": "HEK293 membranes, [3H]CP-55,495 radioligand, means of n=3, dash = greater than 25 micromolar, read-out: CB2R Activity"}}, "note": "Where two headings read alike, the source gives them in different places."}
{"molecule": "isophaseollin [Example 2]", "values": [{"measurement": "activation of Cannabinoid Receptor 1 (CB1R), in words", "setting": "[1]", "value": "can activate"}, {"measurement": "EC50", "setting": "[1]; [3]", "value": 15.5, "unit": "µM"}, {"measurement": "activation of Cannabinoid Receptor 2 (CB2R), in words", "setting": "[2]", "value": "can activate"}, {"measurement": "EC50", "setting": "[2]; [4]", "value": 22.3, "unit": "µM"}]}
{"molecule": "C=C(C)C1Cc2c(cc(O)c3c2OC2C(O)Oc4cc(OC)c(OC)cc4C2C3=O)O1", "note": "(centres unmarked) [Example 1, 6-hydroxysumatrol]", "values": [{"measurement": "EC50", "setting": "[1]; [3]", "value": 17.1, "unit": "µM"}, {"measurement": "EC50", "setting": "[2]; [4]", "value": "> 25", "unit": "µM"}]}
{"molecule": "COc1cc(C2Oc3ccc(C4CC(=O)c5c(O)cc(O)cc5O4)cc3OC2CO)ccc1O", "note": "(centres unmarked) [Example 3, silandrin]", "values": [{"measurement": "EC50", "setting": "[1]", "value": 22, "unit": "µM"}, {"measurement": "EC50", "setting": "[2]", "value": "> 25", "unit": "µM"}]}
